Consider 4 compounds from patent publication US20200061062A1, “INHIBITORS OF HUMAN PHOSPHATIDYLINOSITOL 3-KINASE DELTA” (ICOS Corporation, priority 2000, published 2020).

As a reminder, the remaining activity is the share of the control activity or signal that is left under treatment.

The test system of one assay is T cell proliferation. Put plainly: Stimulated T cell proliferation (Mouse TCE Stim, Table 4). It is filed as cell-based. As to conditions: stimulated T cell proliferation, read-out: Mouse TCE Stim (EC50).
Assay [1] concerns the target T1, PI3Kβ (Homo sapiens, UniProt P42338).
T1 construct: His tag (pFastbac HTa vector) (N); FLAG (N); made in house; host or cells: Sf21 insect cells (baculovirus)
Briefly: Biochemical assay of PI3K potency and selectivity using 20 μM ATP, Beta. The conditions noted are these: for Beta/Delta Ratio / remaining activity at 100 µM: 20 μM ATP; for Beta/Delta Ratio: ratio of IC50 values, > = hypothetical ratio with 100 μM substituted for the missing IC50; for remaining activity at 100 µM: read-out: Beta: percent activity remaining at 100 μM, 100 μM compound did not inhibit by at least 50%. In outline:
(§1)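 Lipid-kinase radiometric assay with γ-[32P]ATP (20 μM ATP) on PIP2/PS liposomes in 20 mM HEPES pH 7.4; the 3× substrate mix held […] and 6 μM liposomes.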

A further assay has as its system human neutrophils. Put plainly: fMLP-induced human neutrophil migration. The class given is cell-based. As to the method: Neutrophils have the intrinsic capacity to migrate through tissues, and are one of the first cell types to arrive at the sites of inflammation or tissue injury. The effect of D-000 on neutrophil migration towards a concentration gradient of fMLP was measured. The day before the migration assays were performed, 6-well plates were coated with recombinant ICAM-1/Fc fusion protein (Van der Vieren et al., Immunity, 3:683-690 (1995)) (25 μg/mL in bicarbonate buffer, pH 9.3) and left overnight at 4° C. After washing, 1% agarose solution, in RPMI-1640 with 0.5% bovine serum albumin (BSA), was added to wells with or without an inhibitor, and plates were placed into a refrigerator before punching holes in the gelled agarose to create plaques (1 central hole surrounded by 6 peripheral ones per well).
Human neutrophils were obtained as described above, and resuspended in RPMI medium supplemented with 0.5% BSA at 5×10^6 cells/mL. After combining equal volumes of neutrophil suspension and medium (either with DMSO or a serial dilution of the test compound in DMSO), neutrophils were aliquoted into the peripheral holes, while the central hole received fMLP (5 μM). Plates were incubated at 37° C. in the presence of 5% CO2 for 4 hr, followed by termination of migration by the addition of 1% glutaraldehyde solution in D-PBS. After removing the agarose layer, wells were washed with distilled water and dried.
Analysis of neutrophil migration was conducted on a Nikon DIAPHOT® inverted microscope (1× objective) video workstation using the NIH 1.61 program. Using Microsoft Excel and Table Curve 4 (SSPS Inc., Chicago Ill.) programs, a migration index was obtained for each of the studied conditions. Migration index was defined as the area under a curve representing number of migrated neutrophils versus the net distance of migration per cell.
Using the methods described in Examples 3-5, above, compounds of the invention were tested for inhibitory activity and potency in assays of stimulated B and T cell proliferation, neutrophil (PMN) migration, and neutrophil (PMN) elastase release. In Table 4, the values shown are effective concentrations of the compound (EC50; μM). Where no value is given, no assay was performed.

Assay [2] has as its target T2, PI3Kγ (Homo sapiens, UniProt P48736).
T2 construct: His tag (pFastbac HTb vector) (N); FLAG (N); made in house; host or cells: Sf21 insect cells (baculovirus)
Put plainly: Biochemical assay using 200 μM ATP, Gamma.
Description: (§2) PI3Kδ catalyzes a phosphotransfer from γ-[^32P]ATP to PIP2/PS liposomes at the D3′ position of the PIP2 lipid inositol ring. This reaction is MgCl2 dependent and is quenched in high molarity potassium phosphate buffer pH 8.0 containing 30 mM EDTA. […] The reaction products (and all unlabelled products) are transferred to a 96-well, prewetted PVDF filter plate, filtered, and washed in high molarity potassium phosphate. Scintillant is added to the dried wells and the incorporated radioactivity is quantitated.
(§3) This dilution established a final concentration of 200 μM ATP in the reaction volume. The reaction was stopped with 150 μL quench buffer (1.0 M potassium phosphate pH 8.0, 30 mM EDTA). A portion of the quenched solution (180 μL) was then transferred to a PVDF filter plate (Millipore # MAIP NOB prewetted with sequential 200 μL washes of 100% methanol, water, and finally 1.0 M potassium phosphate pH 8.0 wash buffer).
(§4) The PVDF filter plate was aspirated under moderate vacuum (2-5 mm Hg), washed with 5×200 μL of wash buffer, and then dried by aspiration. The filter was subsequently blotted, allowed to air dry completely, and inserted into a Wallac counting cassette with 50 μL of Ecoscint scintillation cocktail added per well.
(§5) Subsequent selectivity assays were done similarly using the same 3× substrate stocks except they contained 0.05 mCi/mL γ[^32P]ATP and 3 mM PIP2. Subsequent selectivity assays also used the same 3× enzyme stocks, except they now contained 3 nM of any given PI3K isoform.
(§6) For all selectivity assays, the test compounds were weighed out and dissolved into 10-50 mM stocks in 100% DMSO (depending on their respective solubilities) and stored at −20° C. […] From these dilutions, 20 μL was added into the assay wells alongside water blanks used for the enzyme (positive) control and the no enzyme (background) control.
(§7) This selectivity protocol is identical to that described above, except the 3× stock ATP concentration was 600 μM.

The target in assay [3] is T2, PI3Kγ. Put plainly: Biochemical assay of PI3K potency and selectivity using 20 μM ATP, Gamma. As to conditions: for Gamma/Delta Ratio: ratio of IC50 values.
Assay [4] relates to Murine splenocytes (Balb/c). Put plainly: B cell proliferation in response to cell surface IgM stimulation. It is filed as cell-based. As to conditions: Mus musculus, Splenocyte; for EC50: stimulated B cell proliferation, read-out: Mouse BCR Stim (EC50). A digest of the protocol:
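Balb/c splenocytes (2×10^5/well, 10% FBS/RPMI) preincubated 30-60 min with inhibitor, then stimulated with goat F(ab′)2 anti-mouse IgM μ-chain at 25 μg/mL final. Cultured 3 days at 37° C., [^3H]-thymidine pulsed for final 4 h; incorporation counted as CPM. Values are EC50 (μM).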

For assay [5], the target named is T3, PI3Kδ (Homo sapiens, UniProt O00329, S253N). Briefly: Biochemical assay using 200 μM ATP, Delta.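 Note: radiometric filter-binding assay: PI3Kδ transfers ³²P from γ-[³²P]ATP onto PIP2/PS liposomes, counted by scintillation, enzyme-only wells as positive control, no-enzyme wells as background.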
Description: as §2, §3, §4, §5, §6, §7
The target in assay [6] is T4, PI3Kα (Homo sapiens, UniProt P42336).
T4 construct: His tag (pFastbac HTb vector) (N); FLAG; made in house; host or cells: Sf21 insect cells (baculovirus)
Briefly: Biochemical assay of PI3K potency and selectivity using 20 μM ATP, Alpha. As to conditions: for Alpha/Delta Ratio: ratio of IC50 values, > = hypothetical ratio with 100 μM substituted for the missing IC50; for remaining activity at 100 µM: read-out: percent activity remaining at 100 μM, 20 μM ATP, 100 μM compound did not inhibit by at least 50%. In outline:
as §1

Assay [7] concerns the target T4, PI3Kα. Put plainly: Biochemical assay using 200 μM ATP, Alpha.
Description: as §2, §3, §4, §5, §6, §7
The target of assay [8] is T3, PI3Kδ. Put plainly: Biochemical assay of PI3K potency and selectivity using 20 μM ATP, Delta. Details: His tag (pFastbac HTb vector) (N); FLAG; made in house; host or cells: Sf21 insect cells (baculovirus). A digest of the protocol:
as §1

Assay [9] deals with T1, PI3Kβ. Put plainly: Biochemical assay using 200 μM ATP, Beta.
[10] abbreviates: neutrophil (PMN) migration, read-out: Human PMN Migration (EC50).
Where [11] appears, read: 20 μM ATP, read-out: Delta IC50.

Each structure is given as a SMILES string. Like-named read-outs stand apart in the source and are kept apart here.

T2 sequence (P48736 whole entry): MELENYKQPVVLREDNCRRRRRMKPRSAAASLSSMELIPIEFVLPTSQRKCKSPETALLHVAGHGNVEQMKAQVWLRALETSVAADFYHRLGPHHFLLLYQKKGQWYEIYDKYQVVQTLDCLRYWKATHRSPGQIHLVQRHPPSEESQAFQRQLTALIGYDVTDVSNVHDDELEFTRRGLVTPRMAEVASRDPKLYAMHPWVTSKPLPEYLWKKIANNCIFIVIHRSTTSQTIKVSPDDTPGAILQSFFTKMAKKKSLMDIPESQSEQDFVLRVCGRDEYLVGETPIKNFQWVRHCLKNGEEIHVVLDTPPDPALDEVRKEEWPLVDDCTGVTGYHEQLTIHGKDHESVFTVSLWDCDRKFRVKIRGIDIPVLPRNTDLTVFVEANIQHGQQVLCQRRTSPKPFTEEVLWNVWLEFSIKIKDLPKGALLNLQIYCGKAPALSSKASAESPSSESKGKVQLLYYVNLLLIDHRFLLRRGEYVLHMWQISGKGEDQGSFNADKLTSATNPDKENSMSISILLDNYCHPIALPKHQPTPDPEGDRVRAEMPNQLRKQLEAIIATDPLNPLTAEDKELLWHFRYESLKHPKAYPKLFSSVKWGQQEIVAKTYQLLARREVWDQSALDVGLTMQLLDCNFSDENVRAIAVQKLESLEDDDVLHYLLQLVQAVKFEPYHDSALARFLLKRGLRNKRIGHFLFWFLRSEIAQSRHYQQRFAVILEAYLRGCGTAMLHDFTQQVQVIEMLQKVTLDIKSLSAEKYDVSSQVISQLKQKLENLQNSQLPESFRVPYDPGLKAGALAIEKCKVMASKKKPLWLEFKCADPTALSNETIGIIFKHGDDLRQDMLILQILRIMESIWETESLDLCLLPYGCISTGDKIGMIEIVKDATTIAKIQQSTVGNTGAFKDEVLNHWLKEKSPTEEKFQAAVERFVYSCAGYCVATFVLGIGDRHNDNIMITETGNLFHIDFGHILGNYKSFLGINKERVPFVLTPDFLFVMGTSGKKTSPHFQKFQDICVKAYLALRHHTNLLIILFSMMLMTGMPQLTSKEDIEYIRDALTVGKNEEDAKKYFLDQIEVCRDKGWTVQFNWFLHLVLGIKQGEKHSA
T1 sequence (P42338 whole entry): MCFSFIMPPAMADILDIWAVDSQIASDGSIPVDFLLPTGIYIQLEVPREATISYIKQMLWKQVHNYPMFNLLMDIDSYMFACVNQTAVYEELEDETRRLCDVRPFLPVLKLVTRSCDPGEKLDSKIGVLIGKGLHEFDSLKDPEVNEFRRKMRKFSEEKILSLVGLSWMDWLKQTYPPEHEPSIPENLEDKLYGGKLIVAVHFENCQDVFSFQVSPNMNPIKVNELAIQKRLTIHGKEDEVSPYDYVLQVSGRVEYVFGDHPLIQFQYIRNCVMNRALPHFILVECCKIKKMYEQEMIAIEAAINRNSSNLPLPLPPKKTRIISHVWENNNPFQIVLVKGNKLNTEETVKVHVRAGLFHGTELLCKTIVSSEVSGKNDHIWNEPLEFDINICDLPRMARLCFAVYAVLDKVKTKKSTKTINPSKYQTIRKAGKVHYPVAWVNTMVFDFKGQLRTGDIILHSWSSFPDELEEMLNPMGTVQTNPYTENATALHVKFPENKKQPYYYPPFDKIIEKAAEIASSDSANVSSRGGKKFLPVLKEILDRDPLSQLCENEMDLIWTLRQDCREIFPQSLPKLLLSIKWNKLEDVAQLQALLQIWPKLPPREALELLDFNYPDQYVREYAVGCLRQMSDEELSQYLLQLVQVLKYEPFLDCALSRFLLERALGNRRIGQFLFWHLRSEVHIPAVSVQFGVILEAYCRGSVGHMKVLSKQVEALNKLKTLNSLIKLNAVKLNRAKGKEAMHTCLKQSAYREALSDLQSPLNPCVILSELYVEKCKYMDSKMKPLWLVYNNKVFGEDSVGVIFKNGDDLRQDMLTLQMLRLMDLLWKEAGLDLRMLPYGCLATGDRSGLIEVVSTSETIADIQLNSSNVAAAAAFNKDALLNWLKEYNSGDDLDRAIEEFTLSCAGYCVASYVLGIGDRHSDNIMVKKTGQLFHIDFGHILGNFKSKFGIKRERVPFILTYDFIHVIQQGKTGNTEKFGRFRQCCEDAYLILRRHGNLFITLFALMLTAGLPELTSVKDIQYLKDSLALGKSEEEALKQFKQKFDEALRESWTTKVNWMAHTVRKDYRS
T1 sequence (P27986 whole entry partner): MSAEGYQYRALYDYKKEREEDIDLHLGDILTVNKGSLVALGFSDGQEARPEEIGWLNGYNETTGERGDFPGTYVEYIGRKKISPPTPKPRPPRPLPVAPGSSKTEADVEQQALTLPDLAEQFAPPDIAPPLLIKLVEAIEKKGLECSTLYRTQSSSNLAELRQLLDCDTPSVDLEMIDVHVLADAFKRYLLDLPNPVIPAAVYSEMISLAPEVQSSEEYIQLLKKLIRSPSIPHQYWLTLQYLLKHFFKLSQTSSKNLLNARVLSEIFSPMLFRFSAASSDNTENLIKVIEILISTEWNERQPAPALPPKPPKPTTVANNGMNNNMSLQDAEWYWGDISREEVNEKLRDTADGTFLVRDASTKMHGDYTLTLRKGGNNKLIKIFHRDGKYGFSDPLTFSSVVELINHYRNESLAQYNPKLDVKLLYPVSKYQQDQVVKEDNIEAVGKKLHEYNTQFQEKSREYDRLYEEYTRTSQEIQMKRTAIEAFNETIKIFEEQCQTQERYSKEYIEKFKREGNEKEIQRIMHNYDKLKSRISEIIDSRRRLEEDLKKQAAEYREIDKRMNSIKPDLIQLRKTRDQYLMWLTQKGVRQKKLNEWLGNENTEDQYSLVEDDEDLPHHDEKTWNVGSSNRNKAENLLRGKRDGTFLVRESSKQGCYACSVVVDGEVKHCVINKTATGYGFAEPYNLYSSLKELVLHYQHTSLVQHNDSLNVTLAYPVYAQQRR
T3 sequence (O00329 whole entry S253N): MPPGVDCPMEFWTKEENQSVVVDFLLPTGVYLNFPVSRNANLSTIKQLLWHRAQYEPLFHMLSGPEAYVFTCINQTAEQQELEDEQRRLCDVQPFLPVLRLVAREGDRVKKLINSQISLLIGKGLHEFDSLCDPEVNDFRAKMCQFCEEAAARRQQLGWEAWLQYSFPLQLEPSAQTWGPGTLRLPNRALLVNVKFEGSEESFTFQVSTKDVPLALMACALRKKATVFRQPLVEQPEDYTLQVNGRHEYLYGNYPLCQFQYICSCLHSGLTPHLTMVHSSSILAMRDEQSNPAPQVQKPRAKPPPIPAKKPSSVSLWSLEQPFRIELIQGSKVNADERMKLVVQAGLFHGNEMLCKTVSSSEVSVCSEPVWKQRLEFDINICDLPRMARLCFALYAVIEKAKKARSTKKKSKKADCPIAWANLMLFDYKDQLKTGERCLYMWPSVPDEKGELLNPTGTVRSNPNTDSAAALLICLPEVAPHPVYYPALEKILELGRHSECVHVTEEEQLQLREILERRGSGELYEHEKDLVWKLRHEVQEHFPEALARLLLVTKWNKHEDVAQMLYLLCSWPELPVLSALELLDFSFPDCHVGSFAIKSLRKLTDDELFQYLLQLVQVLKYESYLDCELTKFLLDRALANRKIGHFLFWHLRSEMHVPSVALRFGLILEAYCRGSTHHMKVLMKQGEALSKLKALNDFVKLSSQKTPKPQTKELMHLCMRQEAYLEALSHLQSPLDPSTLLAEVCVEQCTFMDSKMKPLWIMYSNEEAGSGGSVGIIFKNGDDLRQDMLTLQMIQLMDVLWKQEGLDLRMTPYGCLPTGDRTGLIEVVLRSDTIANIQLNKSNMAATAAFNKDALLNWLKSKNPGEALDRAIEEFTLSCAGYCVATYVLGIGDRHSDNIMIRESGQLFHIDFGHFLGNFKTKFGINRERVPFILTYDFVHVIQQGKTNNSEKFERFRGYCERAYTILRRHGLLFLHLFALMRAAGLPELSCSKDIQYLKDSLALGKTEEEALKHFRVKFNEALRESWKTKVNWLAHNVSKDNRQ
T3 sequence (P27986 whole entry partner): as the sequence (P27986 whole entry partner) above
T4 sequence (P42336 whole entry): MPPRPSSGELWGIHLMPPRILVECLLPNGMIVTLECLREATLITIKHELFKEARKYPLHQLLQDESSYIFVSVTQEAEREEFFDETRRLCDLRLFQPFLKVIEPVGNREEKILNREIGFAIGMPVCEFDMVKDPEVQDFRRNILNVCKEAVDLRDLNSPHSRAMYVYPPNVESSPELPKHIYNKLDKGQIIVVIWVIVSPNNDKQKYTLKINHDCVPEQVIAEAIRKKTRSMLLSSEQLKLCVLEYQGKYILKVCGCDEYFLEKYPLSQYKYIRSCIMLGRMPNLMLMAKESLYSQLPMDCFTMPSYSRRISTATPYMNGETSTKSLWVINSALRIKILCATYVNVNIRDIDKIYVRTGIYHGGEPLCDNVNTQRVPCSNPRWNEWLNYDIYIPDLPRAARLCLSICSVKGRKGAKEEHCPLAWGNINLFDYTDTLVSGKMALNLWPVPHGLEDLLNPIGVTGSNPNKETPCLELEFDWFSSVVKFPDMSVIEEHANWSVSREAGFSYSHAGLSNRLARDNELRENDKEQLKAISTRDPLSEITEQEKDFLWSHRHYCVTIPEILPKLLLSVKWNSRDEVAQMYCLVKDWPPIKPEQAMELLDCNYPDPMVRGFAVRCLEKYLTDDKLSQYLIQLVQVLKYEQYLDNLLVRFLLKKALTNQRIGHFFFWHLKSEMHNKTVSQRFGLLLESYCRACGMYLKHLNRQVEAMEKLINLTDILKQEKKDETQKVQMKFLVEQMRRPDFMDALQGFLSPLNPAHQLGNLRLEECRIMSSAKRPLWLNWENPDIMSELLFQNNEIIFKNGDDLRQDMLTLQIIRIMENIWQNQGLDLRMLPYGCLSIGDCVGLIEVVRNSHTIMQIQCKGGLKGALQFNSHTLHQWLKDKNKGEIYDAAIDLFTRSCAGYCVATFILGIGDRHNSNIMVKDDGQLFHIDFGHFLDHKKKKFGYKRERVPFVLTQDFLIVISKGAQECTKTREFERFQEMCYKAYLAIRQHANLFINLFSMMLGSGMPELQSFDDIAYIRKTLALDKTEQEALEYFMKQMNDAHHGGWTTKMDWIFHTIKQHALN
T4 sequence (P27986 whole entry partner): as the sequence (P27986 whole entry partner) above

Consider `O=c1c2c(Cl)cccc2nc(CSc2ncnc3[nH]cnc23)n1-c1ccccc1Cl` [Compound D-025, 5-Chloro-3-(2-chlorophenyl)-2-(9H-purin-6-ylsulfanylmethyl)-3H-quinazolin-4-one], for which the EC50 with T cell proliferation was found to be 4400 ± 600 nM; in the assay with human neutrophils (setting [10]) it was 300 ± 300 nM; in assay [4] it was 300 ± 100 nM. Besides, at PI3Kβ [1], the “Beta/Delta Ratio” value is recorded as more than 909. Moreover, the results for the remaining activity at 100 µM on PI3Kβ [1] and on PI3Kα [6] were 61% and 73%, respectively. Also, the “Gamma/Delta Ratio” value was 24 on PI3Kγ [2] and 14 at PI3Kγ [3]. In addition, the IC50 against PI3Kγ [2] is 7800 ± 3000 nM; at PI3Kγ [3], 1500 nM; against PI3Kδ [5], 320 ± 300 nM; on PI3Kδ [8] (setting [11]), 110 nM. The “Alpha/Delta Ratio” value was more than 909 on PI3Kα [6] (20 μM ATP) and 556 on PI3Kα [7].

As for `O=c1c2ccccc2nc(CSc2ncnc3[nH]ncc23)n1-c1ccccc1Cl` [Compound D-999, 3-(2-Chlorophenyl)-2-(1H-pyrazolo[3,4-d]pyrimidin-4-ylsulfanylmethyl)-3H-quinazolin-4-one, reference compound], the results for the EC50 (with T cell proliferation; in the assay on human neutrophils (setting [10]); in [4]) were 5900 nM, 1000 nM and 3100 ± 700 nM, respectively. Further, the “Beta/Delta Ratio” value on PI3Kβ [1] was determined as 2.1; at PI3Kβ [9], 2. Further, on PI3Kβ [1], the remaining activity at 100 µM came to 71%. Moreover, the figures for the “Gamma/Delta Ratio” value on PI3Kγ [2] and at PI3Kγ [3] were 1 and 1.3, respectively. Besides, the IC50 came to 90000 nM on PI3Kγ [2]; 60000 nM against PI3Kγ [3]; 75000 nM against PI3Kδ [5]; 105000 nM on PI3Kα [6] (20 μM ATP, read-out: Alpha IC50); 47000 nM on PI3Kδ [8] (setting [11]). Also, the results for the “Alpha/Delta Ratio” value at PI3Kα [6] (20 μM ATP) and on PI3Kα [7] were 2.2 and 2, respectively.

Take `O=c1c2c(F)cccc2nc(CSc2ncnc3[nH]cnc23)n1-c1ccccc1Cl` [Compound D-015, 3-(2-Chlorophenyl)-5-fluoro-2-(9H-purin-6-ylsulfanylmethyl)-3H-quinazolin-4-one]: the figures for the EC50 (with T cell proliferation; with human neutrophils (setting [10]); in assay [4]) were 1800 nM, 2000 nM and 1200 ± 200 nM, respectively. Further, the “Beta/Delta Ratio” value is reported as more than 480 on PI3Kβ [1] and 154 at PI3Kβ [9]. Moreover, the values for the remaining activity at 100 µM on PI3Kβ [1] and on PI3Kα [6] were 69% and 65%, respectively. The results for the “Gamma/Delta Ratio” value at PI3Kγ [2] and at PI3Kγ [3] were 160 and 17, respectively. Besides, the IC50 against PI3Kγ [3] was found to be 3600 nM; against PI3Kδ [5], 1100 ± 500 nM; at PI3Kδ [8] (setting [11]), 210 nM. The “Alpha/Delta Ratio” value is more than 480 on PI3Kα [6] (20 μM ATP) and 180 on PI3Kα [7].

For the compound `O=c1c2ccccc2nc(CSc2ncnc3[nH]cnc23)n1-c1ccccc1Cl` [Compound D-000, 3-(2-chlorophenyl)-2-(9H-purin-6-ylsulfanylmethyl)-3H-quinazolin-4-one], the EC50 with T cell proliferation was 5500 ± 4000 nM; in the assay on human neutrophils (Neutrophil, fMLP (5 μM) gradient, 4 hr, FIG. 5, read-out: EC50 for inhibition of neutrophil migration), approximately 1000 nM; in the assay on human neutrophils (setting [10]), 1000 to 5000 nM; in [4] it was 900 ± 400 nM. Besides, the “Beta/Delta Ratio” value on PI3Kβ [1] was more than 302; at PI3Kβ [9], 84. Further, the IC50 at PI3Kβ [1] (Example 2 assay conditions, limit of 100 μM compound, read-out: IC50, β isoform of PI3K (FIG. 1)) is more than 100000 nM; against PI3Kγ [2] it was 35000 ± 35000 nM; against PI3Kγ [3], 7700 nM; in [4] (anti-IgM 25 μg/mL, 3 days, [3H]-thymidine, FIG. 8, read-out: Concentration reducing anti-IgM-stimulated B cell proliferation to its half-maximal value), approximately 1000 nM; at PI3Kδ [5], 2000 ± 1000 nM; on PI3Kα [6] (Example 2 assay conditions, limit of 100 μM compound, read-out: IC50, α isoform of PI3K (FIG. 1)), more than 100000 nM. Also, the IC50 on PI3Kδ [8] (setting [11]) is 330 nM; on PI3Kδ [8] (Example 2 assay conditions, read-out: IC50, δ isoform of PI3K (FIG. 1)) it was approximately 300 nM. Further, the remaining activity at 100 µM at PI3Kβ [1] turned out to be 74%; on PI3Kα [6], 86%. The “Gamma/Delta Ratio” value at PI3Kγ [2] came to 18; on PI3Kγ [3], 23. Also, the “Alpha/Delta Ratio” value at PI3Kα [6] (20 μM ATP) was more than 302; on PI3Kα [7] it was 91.
